Patent US9370606B2, “Scaffold-free self-organized 3D synthetic tissue” (Two Cells, Co., Ltd., priority 2003, dated 2016)

What was measured:
[1] = system: synovium-derived synthetic tissue; test: Influence of actin regulatory agents on contraction of a synthetic tissue; type: cell-based; conditions: dihydrocytochalasin B 3 μM, Y27632 10 μM; after detachment
Protocol: Dihydrocytochalasin B and Y27632 (Yamanouchi Pharmaceutical), which are known to have an actin depolymerizing function, were used to study their influence on the contraction of a synthetic tissue.
A synovium-derived synthetic tissue was produced by monolayer culture. The tissue was detached from a culture dish. The tissue was cultured in medium in the presence of dihydrocytochalasin B (3 μM) and Y27632 (10 μM). The transition of the radius of the tissue is shown every unit culture time in FIG. 40. […] Dihydrocytochalasin B and Y27632 are representative exemplary actin polymerization inhibitors. It will be understood by those skilled in the art that other actin polymerization inhibitors, such as cytochalasin D and the like, have a similar function.

synovial cells = test: HE staining of synthetic tissue produced from synovial cells; type: cell-based, pig
Protocol: Synovial cells were collected from a knee joint of a pig (LWD ternary hybrid, 2-3 months old upon removal of cells), followed by treatment with collagenase. The cells were cultured and subcultured in 10% FBS-DMEM medium (FBS was obtained from HyClone, DMEM was obtained from GIBCO). It has been reported that 10th passage synovial cells still have pluripotency. Although cells of 10 or less passages were used in this example, cells of more than 10 passages may be used depending on the application. Autotransplantation was performed for humans, where a sufficient number of cells were used and the cells were cultured for a short period of time so as to reduce the risk of infection or the like. Synovial cells (4.0×10^6) were cultured in 2 ml of 10% FBS-DMEM medium in a 35-mm dish, a 60-mm dish, or 100-mm dish (BD Biosciences, culture dish and multiwell cell culture plate). In this case, ascorbic acid was added. The dishes, the ascorbic acid concentrations, and the cell concentration are described below. Ascorbic acid 2-phosphate: 0 mM, 0.1 mM, 0.5 mM; 1 mM, 2 mM, and 5 mM Medium was exchanged two times per week until the end of a predetermined culture period. At the end of the culture period, a cell sheet was detached from the dish by pipetting circumferentially around the dish using a 100-μl pipetteman. After detachment, the cell sheet was made as flat as possible by lightly shaking the dish. […]

[2] = system: synovial membrane-derived synthetic tissue; test: Collagen content measurement (hydroxyproline) of synovial membrane-derived synthetic tissue; type: cell-based, pig
Protocol: In order to determine the collagen concentration, the collagen content was measured. […] The amount of produced collagen is substantially proportional to the time period of culture (FIG. 8). Next, it was determined whether or not collagen (extracellular matrix) is sufficiently secreted after implantation of a synthetic tissue of the present invention. The following protocol was used. Culture periods: 3 days, 7 days, 14 days, and 21 days, Concentrations of ascorbic acid 2-phosphate: 0 mM, 0.1 mM, 1 mM, and 5 mM Under the above-described conditions, a synovial membrane-derived synthetic tissue was produced. 6 N HCl was added to culture medium for the synthetic tissue, followed by hydrolysis at 105° C. for 18 hours. The medium was oxidized with chloramine T. Thereafter, the synthetic tissue was subjected to color development using Ehrlich's Reagent Solution (2 g of p-dimethylamino-benzaldehyde+3 ml of 60% perchloric acid; isopropanol was diluted at 3:13), followed by measurement of absorbance.

monolayer culture cells = test: Conditions for detachment during production of a synthetic tissue; type: cell-based
Protocol: In this example, it was determined whether or not chemical detachment can be used instead of physical detachment (mechanical detachment (e.g., pipetting, etc.)) during the production of the synthetic tissue of the present invention.
Cell density: 4×10^4 cells/cm^2
Conditions: CO2 5%, air 95%, 37° C.
Medium: DMEM/F12 (FBS 10%) supplemented with 10 ng/ml TGFβ1.
This medium was used to conduct culture under the conditions described in Examples 14 and 15 to produce a synthetic tissue.
Medium: DMEM (GIBCO), FBS (HyClone) 10%, ITS+Premix (insulin, transferrin, selenious acid) (BD Biosciences) 6.25 μg/ml, dexamethasone (Sigma) 10^−7 M, ascorbic acid (WAKO) 50 μg/ml, pyrubic acid (SIGMA) 100 μg/ml.

With `C[C@@H](N)[C@H]1CC[C@H](C(=O)Nc2ccncc2)CC1` [Y27632] the “contraction of the synthetic tissue (radius over culture time)” value [1] was “inhibited”.
For `O=C1O[C@H]([C@@H](O)CO)C(O)=C1OP(=O)(O)O` [ascorbic acid 2-phosphate], the “formation of an extracellular matrix” value (synovial cells; 0.1 mM or more) was “promoted”, the “Eosin staining of the synthetic tissue” value (synovial cells; concentration of more than 0.1 mM) was “more intense” and the “quantities of collagen produced, dependence on concentration” value ([2]; 0, 0.1, 1 and 5 mM, culture 3 to 21 days) was 0 mM<<5 mM<1 mM≦0.1 mM. The “production of collagen (amount of hydroxyproline)” value ([2]; 0.1 mM or more added) was “significantly promoted” and the “collagene content in the synthetic tissue” value ([2]; 0.1 mM or more added, any of the culture periods) was “significantly increased”.
With `C=C1[C@@H](C)[C@H]2[C@H](Cc3ccccc3)NC(=O)[C@]23OC(=O)CC[C@H](O)CCC[C@@H](C)C/C=C/[C@H]3[C@@H]1O` [dihydrocytochalasin B, Dihydrocytochalasin B] the “contraction of the synthetic tissue (radius over culture time)” value [1] was “inhibited”.
For “TGF-β: transforming growth factor, 10 ng/ml TGFβ1 in medium”, the “detachment of monolayer culture cells from the culture dish” value (monolayer culture cells; 10 ng/ml TGFβ1 in DMEM/F12 (FBS 10%)) was “more easily detached” and the “effect on culture cells” value (monolayer culture cells; added in monolayer culture, no physical stimulus) was “has the effect of detaching culture cells”.
